Laboratory results reported in PubChem BioAssay AID330 (DTP/NCI, 2004).
Values joined by “and” are separate entries in the source; they are usually repeats but may differ in a detail not shown here. Equal values may be shown once. Inconclusive results and toxic doses are left out. How the source made its calls: active means survival T/C of 150% or more; inactive means T/C below 125% in these data.

System: P388 leukemia ip, CD2F1 mice, survival T/C
Test: NCI In Vivo Anticancer Drug Screen. Data for tumor model P388 Leukemia (intraperitoneal) in CD2F1 (CDF1) mice
Details: endpoint: median survival time, higher = longer survival
Summary of the method: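 Mice carrying the transplanted tumor received test compound or vehicle. Survival was recorded in each group, and the value is the treated-group measurement divided by that of the vehicle-treated control group.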

[1] = dose: 100.0 mg/kg/injection, schedule: Q01DX001 (ip), vehicle: saline with Tween-80
[2] = dose: 200.0 mg/kg/injection, schedule: Q01DX001 (ip), vehicle: saline with Tween-80
[3] = dose: 400.0 mg/kg/injection, schedule: Q01DX001 (ip), vehicle: saline with Tween-80
[4] = dose: 25.0 mg/kg/injection, schedule: Q01DX005 (ip), vehicle: Klucel (hydroxypropylcellulose) (HPC)
[5] = dose: 50.0 mg/kg/injection, schedule: Q01DX005 (ip), vehicle: Klucel (hydroxypropylcellulose) (HPC)
[6] = dose: 50.0 mg/kg/injection, schedule: Q01DX009 (ip), vehicle: Klucel (hydroxypropylcellulose) (HPC)
[7] = dose: 100.0 mg/kg/injection, schedule: Q01DX009 (ip), vehicle: Klucel (hydroxypropylcellulose) (HPC)
[8] = dose: 50.0 mg/kg/injection, schedule: Q01DX009 (ip), vehicle: saline with Tween-80
[9] = dose: 100.0 mg/kg/injection, schedule: Q01DX009 (ip), vehicle: saline with Tween-80
[10] = dose: 200.0 mg/kg/injection, schedule: Q01DX009 (ip), vehicle: saline with Tween-80
[11] = dose: 100.0 mg/kg/injection, schedule: Q01DX005 (ip), vehicle: saline with Tween-80
[12] = dose: 60.0 mg/kg/injection, schedule: Q01DX005 (ip), vehicle: saline with Tween-80
[13] = dose: 100.0 mg/kg/injection, schedule: Q04DX003 (ip), vehicle: Klucel (hydroxypropylcellulose) (HPC)
[14] = dose: 200.0 mg/kg/injection, schedule: Q04DX003 (ip), vehicle: Klucel (hydroxypropylcellulose) (HPC)
[15] = dose: 50.0 mg/kg/injection, schedule: Q01DX005 (ip), vehicle: saline with Tween-80

Measured: T/C

COc1ccc(-c2c(N)cnc(C)c2C)c(OC)c1OC
inactive: dose: 12.5 mg/kg/injection, schedule: Q01DX009 (ip), vehicle: other 107 % of control | dose: 25.0 mg/kg/injection, schedule: Q01DX009 (ip), vehicle: other 107 % of control | dose: 50.0 mg/kg/injection, schedule: Q01DX009 (ip), vehicle: other 99 % of control | dose: 100.0 mg/kg/injection, schedule: Q01DX009 (ip), vehicle: other 87 % of control

CCn1c(C)cc(=NC(=O)c2ccccc2O)n1-c1ccccc1
inactive: [1] 103 % of control | [2] 106 % of control | [3] 102 % of control

FC(F)(F)COP(OCC(F)(F)F)OCC(F)(F)F
inactive: dose: 100.0 mg/kg/injection, schedule: Q04DX003 (ip), vehicle: saline with Tween-80 118 % of control | dose: 200.0 mg/kg/injection, schedule: Q04DX003 (ip), vehicle: saline with Tween-80 102 % of control | dose: 400.0 mg/kg/injection, schedule: Q04DX003 (ip), vehicle: saline with Tween-80 104 % of control

COc1cc2c(cc1OC)[C@H]1[C@H](CO)c3ccc4c(c3CN1CC2)OCO4
inactive: dose: 12.5 mg/kg/injection, schedule: Q01DX005 (ip), vehicle: Klucel (hydroxypropylcellulose) (HPC) 100 % of control | [4] 96 % of control | [5] 94 % of control and 96 % of control

Fc1ccc(NC(=S)SCc2ccc3c(c2)OCO3)cc1F
inactive: [6] 119 % of control | [7] 102 % of control | dose: 200.0 mg/kg/injection, schedule: Q01DX009 (ip), vehicle: Klucel (hydroxypropylcellulose) (HPC) 86 % of control

CCOC(=O)c1nc(C)nc(N)c1C
inactive: dose: 12.5 mg/kg/injection, schedule: Q01DX009 (ip), vehicle: water 102 % of control | dose: 25.0 mg/kg/injection, schedule: Q01DX009 (ip), vehicle: water 91 % of control | dose: 50.0 mg/kg/injection, schedule: Q01DX009 (ip), vehicle: water 93 % of control | dose: 100.0 mg/kg/injection, schedule: Q01DX009 (ip), vehicle: water 100 % of control | dose: 200.0 mg/kg/injection, schedule: Q01DX009 (ip), vehicle: water 100 % of control

C(=N\Nc1nc2ccccc2s1)/c1ccc(/C=N/Nc2nc3ccccc3s2)cc1
inactive: [8] 105 % of control | [9] 105 % of control | [10] 102 % of control

CCCn1cc2c3c(cccc31)C1C=C(C)CN(C)C1C2 (stereo not given)
inactive: dose: 6.25 mg/kg/injection, schedule: Q01DX005 (ip), vehicle: saline with Tween-80 100 % of control and 107 % of control | dose: 12.5 mg/kg/injection, schedule: Q01DX005 (ip), vehicle: saline with Tween-80 99 % of control and 100 % of control and 116 % of control | dose: 25.0 mg/kg/injection, schedule: Q01DX005 (ip), vehicle: saline with Tween-80 98 % of control and 105 % of control and 108 % of control | [11] 117 % of control

CC(C)(c1ccc(OCOC(=O)NN)cc1)c1ccc(OCOC(=O)NN)cc1
inactive: [8] 95 % of control | [9] 102 % of control

C=C=CN1C(C)=CC(=C2C(=O)c3ccccc3C2=O)C=C1C
inactive: [4] 99 % of control and 97 % of control | [5] 104 % of control and 92 % of control and 96 % of control | dose: 60.0 mg/kg/injection, schedule: Q01DX005 (ip), vehicle: Klucel (hydroxypropylcellulose) (HPC) 87 % of control | dose: 100.0 mg/kg/injection, schedule: Q01DX005 (ip), vehicle: Klucel (hydroxypropylcellulose) (HPC) 117 % of control and 96 % of control and 97 % of control | dose: 120.0 mg/kg/injection, schedule: Q01DX005 (ip), vehicle: Klucel (hydroxypropylcellulose) (HPC) 97 % of control | dose: 200.0 mg/kg/injection, schedule: Q01DX005 (ip), vehicle: Klucel (hydroxypropylcellulose) (HPC) 106 % of control and 93 % of control

CCOC(=O)c1cnc2ccccc2c1N=[N+]=[N-]
inactive: [12] 94 % of control | dose: 120.0 mg/kg/injection, schedule: Q01DX005 (ip), vehicle: saline with Tween-80 99 % of control | dose: 240.0 mg/kg/injection, schedule: Q01DX005 (ip), vehicle: saline with Tween-80 103 % of control

CS(=O)(=O)C(=Cc1ccccc1Cl)S(C)(=O)=O
inactive: dose: 50.0 mg/kg/injection, schedule: Q04DX003 (ip), vehicle: Klucel (hydroxypropylcellulose) (HPC) 102 % of control | [13] 107 % of control | [14] 108 % of control

Cc1cc(-c2c(C)[nH]n(-c3nc4ccc(F)cc4s3)c2=O)n(-c2nc3ccc(F)cc3s2)n1
inactive: dose: 15.0 mg/kg/injection, schedule: Q01DX005 (ip), vehicle: saline with Tween-80 96 % of control | dose: 30.0 mg/kg/injection, schedule: Q01DX005 (ip), vehicle: saline with Tween-80 95 % of control | [12] 100 % of control and 92 % of control

O=c1nc2scc(-c3ccccc3)n2c2sc3c(c12)CCCC3
inactive: [1] 106 % of control | [2] 95 % of control | [3] 93 % of control

Cc1cc(N2CCCCC2)cc(=O)o1
inactive: [6] 104 % of control | [7] 102 % of control

O/N=C/c1cc[n+](CCC[n+]2ccc(/C=N/O)cc2)cc1
inactive: dose: 5.0 mg/kg/injection, schedule: Q01DX009 (ip), vehicle: saline 100 % of control | dose: 10.0 mg/kg/injection, schedule: Q01DX009 (ip), vehicle: saline 90 % of control | dose: 20.0 mg/kg/injection, schedule: Q01DX009 (ip), vehicle: saline 100 % of control

NC(=O)c1ccc[n+](Cc2ccccc2)c1
inactive: dose: 12.5 mg/kg/injection, schedule: Q01DX009 (ip), vehicle: Klucel (hydroxypropylcellulose) (HPC) 110 % of control | dose: 25.0 mg/kg/injection, schedule: Q01DX009 (ip), vehicle: Klucel (hydroxypropylcellulose) (HPC) 91 % of control | [6] 112 % of control | [7] 93 % of control

CCCCN(CCCC)CC(O)c1cc2ccccc2c2cc(Br)ccc12 (stereo not given)
inactive: [15] 100 % of control | [11] 102 % of control | dose: 200.0 mg/kg/injection, schedule: Q01DX005 (ip), vehicle: saline with Tween-80 100 % of control

CN(CC(O)C(O)C(O)C(O)CN(C)N=O)N=O (stereo not given)
inactive: dose: 100.0 mg/kg/injection, schedule: Q01DX001 (ip), vehicle: saline 115 % of control | dose: 200.0 mg/kg/injection, schedule: Q01DX001 (ip), vehicle: saline 100 % of control | dose: 400.0 mg/kg/injection, schedule: Q01DX001 (ip), vehicle: saline 110 % of control

COC1=CC(=O)C(C2OC(=O)C(Cl)=C2Cl)=CC1=O (stereo not given)
inactive: [15] 114 % of control | [11] 119 % of control

O=C(O)c1ccc(N2C(=O)CC3(CCCCC3)C2=O)cc1O
inactive: [13] 101 % of control | [14] 102 % of control | dose: 400.0 mg/kg/injection, schedule: Q04DX003 (ip), vehicle: Klucel (hydroxypropylcellulose) (HPC) 88 % of control

O=C1SC(c2ccccc2)(c2ccccc2)c2cscc21
inactive: dose: 25.0 mg/kg/injection, schedule: Q01DX009 (ip), vehicle: saline with Tween-80 92 % of control | [8] 94 % of control | [9] 99 % of control | [10] 90 % of control

C=C1OC(C)=C(C(=O)OC(C)(C)C)C1C (stereo not given)
inactive: [1] 106 % of control | [2] 102 % of control | [3] 105 % of control
